Structures are written as SMILES. “Also recorded” adds a separate entry of the source.

In assay [1] the test system is αF435fs (co-expressed with βγ-ENaC). Description: Whole-cell patch clamp, αF435fs + WT βγ. The note with it: read-out: EC50, solnatide, HEK-293, whole-cell, -100 mV, n = 7. In kind it is cell-based, human. On the procedure: Point mutations of α-, β-, γ- and δ-hENaC and PHA1B frameshift mutations of α-hENaC were prepared with the QuikChange Lightning Site-Directed Mutagenesis Kit (Agilent Technologies, CA, USA). Mutagenic primers were designed individually with the Primer Design Program provided on the producer’s website or for the frameshift mutations the same base changes as reported in patients (see Table 2) were performed. Primers were ordered from Sigma-Aldrich, Vienna, Austria.
HEK-293 cells were transfected 1 day after cell seeding using X-tremeGENE HP DNA transfection reagent (Roche Diagnostics, Mannheim, Germany) according to the manufacturer’s protocol. A set of WT or mutant αβγ- or δβγ-hENaC, or α-, β-, γ-, or δ-hENaC alone was used, and the ratio of DNA to transfection reagent was 1:3. The expression was highest 48–72 h after transfection.
Electrophysiological experiments were performed as described in detail by Shabbir et al. ([16]). […] Currents were recorded with the patch clamp method in the whole-cell mode. The chamber contained 1 ml of the bath solution of the following composition (in mM): 145 NaCl, 2.7 KCl, 1.8 CaCl2, 2 MgCl2, 5.5 glucose, and 10 HEPES, adjusted to pH 7.4 with 1 M NaOH solution. Micropipettes were pulled from thin-walled borosilicate glass capillaries (Harvard Apparatus, Holliston, MA, USA) with a DMZ Zeitz Puller to obtain electrode resistances ranging from 2 to 5 MΩ. […]
(Patch clamp records ionic current or voltage across a cell membrane.)

Assay [2] deals with T1, αR448fsβγ-ENaC (Homo sapiens, UniProt P37088+P51168+P51170).
T1 construct: expressed in transfected cells; host or cells: HEK-293
The assay is described as follows: Whole-cell patch clamp, αR448fs + WT βγ. Particulars: αR448fsβγ preincubated with 100 units PNGase F; 200 nM solnatide or 20 nM TNF; n = 3. In kind it is cell-based. Here is the method:
Currents were recorded with the patch clamp method in the whole-cell mode. […] Chemicals for pipette and bathing solutions were supplied by Sigma-Aldrich (Vienna, Austria). Electrophysiological measurements were carried out with an Axopatch 200B patch clamp amplifier (Axon Instruments, CA, USA).

Assay [3] relates to δ-ENaC. Particulars: HEK-293, 5 and 10 min; returns after 1 h; cited from earlier work.
The subject of assay [4] is ENaC PHA1B point mutants. Particulars: PHA1B point mutants with WT subunits; cited from earlier work. The source says: PHA1B is a very rare inherited disease caused by mutations in the genes encoding the α (SCNN1A), β (SCNN1B), or γ (SCNN1G), subunit of ENaC, resulting in defective transepithelial sodium transport ([28]). […] Loss-of-function mutations in ENaC genes translate into the salt-wasting genetic disease PHA1B ([33], [41]). […] Remarkably, amiloride-sensitive currents were restored ...

T1 sequence (P37088 with tags, fused parts or gaps): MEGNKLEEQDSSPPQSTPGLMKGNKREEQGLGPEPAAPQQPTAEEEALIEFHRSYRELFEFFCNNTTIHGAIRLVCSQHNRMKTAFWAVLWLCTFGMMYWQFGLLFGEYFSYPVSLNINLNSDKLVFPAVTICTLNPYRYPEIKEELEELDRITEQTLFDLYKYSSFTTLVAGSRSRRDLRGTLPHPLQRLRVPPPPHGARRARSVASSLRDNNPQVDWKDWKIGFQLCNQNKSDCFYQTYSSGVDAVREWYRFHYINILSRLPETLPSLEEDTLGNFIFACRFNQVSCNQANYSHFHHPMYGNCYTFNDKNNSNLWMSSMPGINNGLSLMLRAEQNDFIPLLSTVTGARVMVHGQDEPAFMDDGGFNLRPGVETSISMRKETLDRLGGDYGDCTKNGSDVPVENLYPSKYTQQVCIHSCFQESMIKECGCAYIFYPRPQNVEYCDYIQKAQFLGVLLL
T1 sequence (P51168 whole entry partner): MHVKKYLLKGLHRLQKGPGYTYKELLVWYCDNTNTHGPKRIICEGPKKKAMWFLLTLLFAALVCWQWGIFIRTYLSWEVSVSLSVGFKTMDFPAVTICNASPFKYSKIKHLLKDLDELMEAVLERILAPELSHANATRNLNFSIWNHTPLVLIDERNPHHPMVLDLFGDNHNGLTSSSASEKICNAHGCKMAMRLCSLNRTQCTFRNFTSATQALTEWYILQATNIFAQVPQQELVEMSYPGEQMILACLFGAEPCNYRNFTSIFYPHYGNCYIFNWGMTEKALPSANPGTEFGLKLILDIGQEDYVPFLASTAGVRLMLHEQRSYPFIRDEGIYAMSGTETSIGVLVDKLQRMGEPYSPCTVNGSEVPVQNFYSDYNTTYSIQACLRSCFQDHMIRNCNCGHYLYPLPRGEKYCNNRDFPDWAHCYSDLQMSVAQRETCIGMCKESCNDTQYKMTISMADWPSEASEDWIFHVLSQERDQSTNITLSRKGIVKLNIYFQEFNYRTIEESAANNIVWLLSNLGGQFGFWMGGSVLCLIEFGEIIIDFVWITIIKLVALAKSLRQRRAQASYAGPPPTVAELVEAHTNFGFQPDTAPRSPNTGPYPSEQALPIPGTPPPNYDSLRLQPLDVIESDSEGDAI
T1 sequence (P51170 whole entry partner): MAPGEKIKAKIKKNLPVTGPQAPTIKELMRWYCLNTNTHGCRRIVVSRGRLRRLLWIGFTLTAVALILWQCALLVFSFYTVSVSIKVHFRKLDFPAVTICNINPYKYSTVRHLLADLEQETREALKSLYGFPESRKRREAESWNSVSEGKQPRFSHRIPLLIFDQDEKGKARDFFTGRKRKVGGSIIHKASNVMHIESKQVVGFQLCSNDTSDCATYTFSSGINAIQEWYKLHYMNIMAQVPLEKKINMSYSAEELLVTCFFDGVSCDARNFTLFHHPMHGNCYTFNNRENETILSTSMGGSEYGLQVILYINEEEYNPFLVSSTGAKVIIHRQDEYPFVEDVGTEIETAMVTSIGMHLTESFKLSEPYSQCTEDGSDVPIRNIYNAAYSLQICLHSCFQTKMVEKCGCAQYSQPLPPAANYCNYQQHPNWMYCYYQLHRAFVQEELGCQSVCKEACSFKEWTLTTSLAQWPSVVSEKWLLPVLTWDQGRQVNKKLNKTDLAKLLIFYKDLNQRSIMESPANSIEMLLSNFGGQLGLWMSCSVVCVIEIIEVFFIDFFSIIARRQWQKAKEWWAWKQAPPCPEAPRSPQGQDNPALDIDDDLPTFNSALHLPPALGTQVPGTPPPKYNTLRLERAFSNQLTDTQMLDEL

Broadly, the EC50 is the concentration giving half of the maximal effect. As for `C[C@@H]1NC(=O)CNC(=O)[C@H](CCC(=O)O)NC(=O)[C@@H]2CCCN2C(=O)[C@H]([C@@H](C)O)NC(=O)[C@H](CCC(=O)O)NC(=O)[C@H](CCCNC(=N)N)NC(=O)[C@H](CCC(N)=O)NC(=O)CNC(=O)[C@@H](N)CSSC[C@@H](C(=O)O)NC(=O)[C@H](Cc2ccc(O)cc2)NC(=O)[C@H](Cc2c[nH]c3ccccc23)NC(=O)[C@@H]2CCCN2C(=O)[C@H](CCCCN)NC(=O)[C@H](C)NC(=O)[C@H](CCC(=O)O)NC1=O` [solnatide, L-cysteine, L-cysteinylglycyl-L-glutaminyl-L-arginyl-L-α-glutamyl-L-threonyl-L-prolyl-L-α-glutamylglycyl-L-alanyl-L-α-glutamyl-L-alanyl-L-lysyl-L-prolyl-L-tryptophyl-L-tyrosyl-, cyclic (1→17)-disulfide], the EC50 in assay [1] was 64.6 ± 8.7 nM. Besides, in assay [2], the “Current activation after PNGase F” value is on record as “no current could be induced; also recorded: neither TNF nor solnatide potentiated amiloride-sensitive current in αR448fsβγ-ENaC following PNGase F treatment”. In assay [3], the “Membrane abundance, solnatide” value was “significant statistically”. In assay [4], the “Restoration of amiloride-sensitive currents” value was “restored to WT control levels; also recorded: restoring current levels in these mutant ENaC-expressing cells to WT levels or even higher”.
